Experimental data taken from patent US20250327791A1, “METHODS OF TREATMENT BASED ON PATIENT SPECIFIC CLINICAL TRIAL MODELS AND ASSOCIATED MODELS AND USES” (DUKE UNIVERSITY, priority 2017, published 2025).

Legend:
CRC057 [1] = test: High-throughput drug screen, CellTiter-Glo cell viability; assay type: cell-based, human; details: CRC057 cell line; 1 μM; 72 hours
Method: (§1) Unless otherwise noted all experiments were carried out using the following materials and methods which are here presented as examples and not limiting embodiments. All equivalent variants are contemplated as part of the presently disclosed subject matter. An Echo Acoustic Dispenser provided automated liquid handling for drug addition while cell plating was performed by a Thermo Fisher Well Mate and assays used a Clarioscan plate reader. The drugs assayed were stamped to the cell plates immediately prior to cell plating at a final concentration of 1 μM. The drug pre-coated plates were plated with 500-1000 cells/well. 72 hours after cell plating cell viabilities were assessed via a CellTiter-Glo Luminescent Cell Viability Assay.
(§2) In this embodiment matching cells lines 31 and PDXs are created 32. These can be developed as described in the Uronis and Kim papers previously incorporated by reference. Drugs may subsequently be screened using these cell lines 33 the results validated in vivo 34 and RNA-Seq and molecular analysis 35 used. As a non-limiting example, CRC057, CRC119, CRC240, CRC247 15-496, and 16-159 were derived from patient colorectal cancers. It should be understood by those of skill in the art that any suitable type of cancer sample may have been taken. High-throughput drug screens, including 119 FDA-approved drug compounds, were performed using the patient-derived cell lines. Any suitable type of high or low throughput drug screen of any FDA approved or non-FDA approved drug may be performed on the cell lines. […] 88%, 95%, 88, and 89% of CRC119 were killed by docetaxel 42, doxorubicin 41, and the vinca alkaloids vincristine and vinorelbine 43 respectively. 46%, 93%, 63% and 56% of CRC240 were killed by docetaxel 42, doxorubicin 41, and the vinca alkaloids vincristine and vinorelbine 43 respectively. 47% 83%, 46% and 46% of CRC057 were killed by docetaxel 42, doxorubicin 41, and the vinca alkaloids vincristine and vinorelbine 43 respectively. 25%, 70%, 37%, and 33% of CRC247 were killed by docetaxel 42, doxorubicin 41, and the vinca alkaloids vincristine and vinorelbine 43 respectively. […] CRC119 45 and 16-159 46 were sensitive to the standard of care cytotoxic chemotherapeutic agent irinotecan with 43% and 64% of cells killed respectively.

organoid C = test: Organoid cell viability / IC50; assay type: cell-based
Method: (§3) In embodiments organoids were created by embedding single cells in Matrigel on ice and seeding the cells in 48 well plates. After the Matrigel was polymerized for 10 minutes at 37° C. basal culture medium was overlaid containing at least one of the optimized growth factor combinations in FIG. 19.
(§4) ATAC-Seq tests were run to determine which pathways were up and down regulated in the presence of various drugs. […] The effectiveness of oxaliplatin 230, an FGFR1 inhibitor 231, along with oxaliplatin and an FGFR1 inhibitor 234 as cell killers was tested in the organoid as shown in FIG. 23. […] The cell killing potential of oxaliplatin 241, an oxytocin antagonist 243, along with oxaliplatin and an oxytocin antagonist 245 was tested as shown in FIG. 24.

organoid A = test: Organoid cell viability / IC50; assay type: cell-based
Method: as §3, §4

organoid B = test: Organoid cell viability / IC50; assay type: cell-based
Method: as §3, §4

CRC18-347 organoid = test: Organoid drug sensitivity assay (Cell Titer Glo); assay type: cell-based, human
Method: (§5) In embodiments, organoids are prepared by mincing a […] tissue sample into <2 mm^3 pieces. Samples are then digested in 5 mL of DMEMF-12+Penicillin Streptomycin+Rock inhibitor Y-27632 along with 20 μL of 0.25% Trypsin/EDTA for an hour with manual inversion every 10 minutes. After being spun down at 1500 RPM the pellet is washed with 5 mL of 10% FBS. During each of 3 washes the material is pipetted slowly about fifteen times. After each wash supernatant is collected and passed through a 70 μm cell strainer. Collected washes are spun down for five minutes at 1500 RPM and the pellet mixed with a 4:1 mixture of Matrigel®/PBS and plated. After the Matrigel® solidifies 1 mL of media is added to each well.
(§6) Collected matrigel is spun for 7 minutes at 1500 RPM. The pellet is collected and resuspended in 300 μL of PBS. 50 μL of this mixture is then mixed with 50 μL of a 1:1 mixture of matrigel/PBS. 5 μL of this mixture is then added to the center of each well in a 96 well plate and the plate incubated until the matrigel solidifies. […] After 90 μL of media is added and the plate is incubated at 37° C. for 24 hours, 5 μL of the tested drug is added to each well. Example concentrations, such as 100 nM, 1 μM and 10 μM concentrations, may be tested in triplicate. After the plate is incubated at 37° C. for 48 hours, 40 μL of Cell Titer Glo for organoids is added to each well to determine drug sensitivity.
(§7) In embodiments, patients undergo biopsy of metastatic cancer, CT of the chest, abdomen and pelvis. In embodiments, drug sensitivity is tested within 7-10 days (or 2-3 days) of obtaining tissue. In embodiments, FIG. 12, organoids are prepared from a PDX biopsy 121 by collecting and digesting cells 122, seeding the cells in a 24 well plate 123, after incubation seeding cells from the 24 well plate in a 96 well plate 124 and screening drugs 125. […] Sensitivity to oxaliplatin at 100 nM, 1 μM, and 10 μM was tested on 8 organoids, CRC057, CRC119, CRC240, CRC16-159, CRC17-608, CRC18-347, CRC247 and CRC18-266, created using the above procedure. […] SN38 (7-ethyl-10-hydroxycamptothecin) was tested, rather than irinotecan, in organoids since irinotecan undergoes deesterification to SN-38 in vivo but not in vitro.

CRC119 organoid = test: Organoid drug sensitivity assay (Cell Titer Glo); assay type: cell-based, human; details: SN38 tested rather than irinotecan in organoids
Method: as §5, §6, §7

CRC16-159 organoid = test: Organoid drug sensitivity assay (Cell Titer Glo); assay type: cell-based, human
Method: as §5, §6, §7

CRC240 organoid = test: Organoid drug sensitivity assay (Cell Titer Glo); assay type: cell-based, human; details: SN38 tested rather than irinotecan in organoids
Method: as §5, §6, §7

CRC057 organoid = test: Organoid drug sensitivity assay (Cell Titer Glo); assay type: cell-based, human
Method: as §5, §6, §7

CRC240 PDX = test: PDX studies accompanying the organoid studies (tumor growth inhibition); assay type: in vivo, mice; details: 10 mg/kg oxaliplatin or 20 mg/kg irinotecan weekly IP for three weeks
Excerpt: (§8) PDX studies accompanying the organoid studies were developed as described previously and in Uronis J M, Osada T, McCall S, Yang X Y, Mantyh C, Morse M A, et al. Histological and molecular evaluation of patient-derived colorectal cancer explants. PloS one 2012; 7:e38422, and Kim M K, Osada T, Barry W T, Yang X Y, Freedman J A, Tsamis K A, et al. Characterization of an oxaliplatin sensitivity predictor in a preclinical murine model of colorectal cancer. Molecular cancer therapeutics 2012; 11:1500-1509. Both of these references are hereby incorporated in their entirety. 6-8 week old NOD/SCID-beige mice were used and the tumors were measured twice a week as described above. Once tumors reached a size of 250 mm^3 mice were treated with either 10 mg/kg oxaliplatin or 20 mg/kg irinotecan weekly via IP (intraperitoneal injection) for three weeks with saline used as a control. PDX tumor sizes were recorded and one-way ANOVA analysis were carried out as described in the references above to determine TGI (tumor growth inhibition.
as §7

CRC16-159 PDX = test: as above; assay type: in vivo, mice; details: 10 mg/kg oxaliplatin weekly IP for three weeks
Excerpt: as §8, §7

CRC057 PDX = test: as above; assay type: in vivo, mice; details: 10 mg/kg oxaliplatin weekly IP for three weeks
Excerpt: as §8, §7

CRC119 PDX = test: as above; assay type: in vivo, mice; details: 10 mg/kg oxaliplatin or 20 mg/kg irinotecan weekly IP for three weeks
Excerpt: as §8, §7

18-347 PDX = test: as above; assay type: in vivo, mice; details: 10 mg/kg oxaliplatin weekly IP for three weeks
Excerpt: as §8, §7

CRC119 = test: High-throughput drug screen, CellTiter-Glo cell viability; assay type: cell-based, human; details: CRC119 cell line; 1 μM; 72 hours
Method: as §1, §2

CRC247 = test: as above; assay type: cell-based, human; details: CRC247 cell line; 1 μM; 72 hours
Method: as §1, §2

CRC240 [2] = test: as above; assay type: cell-based, human; details: CRC240 cell line; 1 μM; 72 hours
Method: as §1, §2

CRC 119 = test: In vitro screening, ponatinib IC50 (cell viability); assay type: cell-based; details: Homo sapiens, 72 hours after drug addition
Method: (§9) For in vitro screening, cell lines were cultured in DMEM+10% FBS+1% Penicillin/Streptomycin and plated in drug free medium. Ponatinib solubilized in DMSO was added to cell lines containing between 3000-6000 cells that had been incubated at 37° C. for 24 hours. Each cell line was exposed to seven different drug combinations between 1.6 nM and 25 μM. Five replicates were used for each drug concentration. 72 hours after drug addition cell viability assay and IC50 values were calculated for each cell line using GraphPad Prism software.
(§10) Reanalyzing the screen data, FIG. 6A identified axitinib 61, sunitinib 62, and dasatinib 63 as targeting similar pathways as ponatinib 64. […] Pre and post ponatinib treatment the major signaling pathways downstream of FGFR, FIG. 7C, not only show a decrease in STAT expression FIG. 8 in CRC119 81, CRC240 83, and CRC057 85 but an increase in p-AKT expression in CRC 119 86, CRC240 87, and CRC057 88. Expression of p-ERK increased in CRC240 89, and CRC057 82 as well.

CRC057 [3] = test: as above; assay type: cell-based; details: Homo sapiens, 72 hours after drug addition
Method: as §9, §10

CRC240 [4] = test: as above; assay type: cell-based; details: Homo sapiens, 72 hours after drug addition
Method: as §9, §10

CRC cell lines = test: High-throughput drug screen, panel of patient-derived cell lines; assay type: cell-based; details: Homo sapiens, in 4/6 cell lines, mined drug screen data, read-out: inhibits growth
Method: as §1
In this embodiment matching cells lines 31 and PDXs are created 32. These can be developed as described in the Uronis and Kim papers previously incorporated by reference. Drugs may subsequently be screened using these cell lines 33 the results validated in vivo 34 and RNA-Seq and molecular analysis 35 used. As a non-limiting example, CRC057, CRC119, CRC240, CRC247 15-496, and 16-159 were derived from patient colorectal cancers. It should be understood by those of skill in the art that any suitable type of cancer sample may have been taken. High-throughput drug screens, including 119 FDA-approved drug compounds, were performed using the patient-derived cell lines. […]

O=C1[O][Pt]2([NH][C@@H]3CCCC[C@H]3[NH]2)[O]C1=O [oxaliplatin]
cells killed (CRC057 [1]): 46%
IC50 (organoid C): 21.7 µM
organoid sensitivity (organoid A; Organoid A, from the IC50 data): resistant
IC50 (organoid A; organoid A): 128 µM
IC50 (organoid B): 7.01 µM
organoid sensitivity (CRC18-347 organoid; 18-347 organoid): sensitive
killing (CRC18-347 organoid; CRC18-347 organoid, 1 μM): > 50%
organoid sensitivity (CRC119 organoid): resistant
organoid sensitivity (CRC16-159 organoid): resistant
organoid sensitivity (CRC240 organoid): resistant
organoid sensitivity (CRC057 organoid): sensitive
killing (CRC057 organoid; 1 μM): > 50%
PDX sensitivity (CRC240 PDX): resistant
PDX sensitivity (CRC16-159 PDX): resistant
PDX sensitivity (CRC057 PDX): sensitive
PDX sensitivity (CRC119 PDX): resistant
PDX sensitivity (18-347 PDX): sensitive

CC(=O)O[C@@]12CO[C@@H]1C[C@H](O)[C@@]1(C)C(=O)[C@H](O)C3=C(C)[C@@H](OC(=O)[C@H](O)[C@@H](NC(=O)OC(C)(C)C)c4ccccc4)C[C@@](O)([C@@H](OC(=O)c4ccccc4)[C@H]21)C3(C)C [docetaxel]
cells killed (CRC119): 88%
cells killed (CRC247): 25%
cells killed (CRC057 [1]): 47%
cells killed (CRC240 [2]): 46%

COc1cccc2c1C(=O)c1c(O)c3c(c(O)c1C2=O)C[C@@](O)(C(=O)CO)C[C@@H]3O[C@H]1C[C@H](N)[C@H](O)[C@H](C)O1 [doxorubicin]
cells killed (CRC119): 95%
cells killed (CRC247): 70%
cells killed (CRC057 [1]): 83%
cells killed (CRC240 [2]): 93%

Cc1ccc(C(=O)Nc2ccc(CN3CCN(C)CC3)c(C(F)(F)F)c2)cc1C#Cc1cnc2cccnn12 [ponatinib]
IC50 (CRC 119): 1.1 µM
IC50 (CRC057 [3]): 0.7 µM
IC50 (CRC240 [4]): 1.1 µM
inhibition at 1 µM (CRC cell lines): ≥ 50%
